One test addresses T1, SHP2 (full length) (Homo sapiens, UniProt Q06124).
T1 construct: SHP2 (full length, diluted to 100 pM final concentration in reaction buffer, BPS bioscience, US); purchased BPS bioscience, US
T1 sequence (Q06124 1-593): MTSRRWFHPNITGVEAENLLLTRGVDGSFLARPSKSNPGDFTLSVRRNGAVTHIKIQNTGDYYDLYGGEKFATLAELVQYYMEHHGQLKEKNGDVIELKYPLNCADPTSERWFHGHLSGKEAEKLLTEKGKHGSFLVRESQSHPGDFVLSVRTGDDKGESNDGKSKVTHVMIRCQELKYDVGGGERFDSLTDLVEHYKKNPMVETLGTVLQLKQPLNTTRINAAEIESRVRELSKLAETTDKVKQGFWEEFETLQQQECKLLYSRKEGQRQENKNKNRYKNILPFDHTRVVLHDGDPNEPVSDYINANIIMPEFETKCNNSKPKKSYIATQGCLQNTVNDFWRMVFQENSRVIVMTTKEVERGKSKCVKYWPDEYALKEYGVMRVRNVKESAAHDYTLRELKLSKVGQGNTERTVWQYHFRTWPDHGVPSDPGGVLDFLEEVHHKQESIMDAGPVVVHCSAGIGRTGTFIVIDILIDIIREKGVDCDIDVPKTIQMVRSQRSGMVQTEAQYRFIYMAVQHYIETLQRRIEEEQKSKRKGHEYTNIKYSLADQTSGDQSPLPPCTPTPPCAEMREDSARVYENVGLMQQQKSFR
The experiment in a line: Phosphatase assay (PTPase assay) with DiFMUP substrate. It is filed as biochemical. Conditions: SHP2 activated with SHP2 activating peptide; DiFMUP 80 μM, 2 hours; fluorescence; read-out: IC50 (PTPase aS say).

The test system of test [1] is phospho-ERK in MIA PaCa2 or H358 cells. The experiment in a line: Phospho-ERK assay (AlphaLisa). It is filed as cell-based. Conditions: MIA PaCa2 or H358 cells, compound incubated 1.5 hours, read-out: IC50 (p-ERK).

As usually defined, the IC50 is the concentration needed to halve the response being measured.

Read-outs that look alike come from different tables or passages of the source.

In the case of `C[C@@H]1OCC2(CCN(c3cnc(Sc4ccc5ncn(CCN6CCOC6=O)c(=O)c5c4Cl)cn3)CC2)[C@@H]1N` [Example 114], the IC50 on SHP2 (full length) is below 3 nM; in test [1] (1.5 h), below 45 nM.
On the same counts, the results for `CC(=O)NCCn1cnc2ccc(Sc3cnc(N4CCC5(CC4)CO[C@@H](C)[C@H]5N)cn3)c(Cl)c2c1=O` [Example 115] are below 3 nM and below 45 nM.
On the same counts, the results for `CC(C)OCCn1cnc2ccc(Sc3cnc(N4CCC5(CC4)CO[C@@H](C)[C@H]5N)cn3)c(Cl)c2c1=O` [Example 116, 6-((5-(3S,4S)-4-amino-3-methyl-2-oxa-8-azaspiro[4,5]decan-8-yl)pyrazin-2-yl)thio)-5-chloro-(3-(2-isopropoxyethyl)quinazolin-4(3H)-one] are below 3 nM and below 45 nM.
On the same counts, the results for `C[C@@H]1OCC2(CCN(c3cnc(Sc4ccc5ncn(CC6=CCOCC6)c(=O)c5c4Cl)cn3)CC2)[C@@H]1N` [Example 117, 6-((5-(3S,4S)-4-amino-3-methyl-2-oxa-8-azaspiro[4,5]decan-8-yl)pyrazin-2-yl)thio)-5-chloro-(3-((3,6-dihydro-2H-pyran-4-yl)methyl)quinazolin-4(3H)-one] are 3 to 100 nM and 45 to 1500 nM.
Regarding `C[C@@H]1OCC2(CCN(c3cnc(Sc4ccc5ncn(CC6CNC(=O)O6)c(=O)c5c4Cl)cn3)CC2)[C@@H]1N` (stereo partly shown) [Example 118], the IC50 at SHP2 (full length) is below 3 nM; in test [1] (1.5 h), below 45 nM.
Consider `C[C@@H]1OCC2(CCN(c3cnc(Sc4ccc5ncn(Cc6ccoc6)c(=O)c5c4Cl)cn3)CC2)[C@@H]1N` [Example 119], for which the IC50 on SHP2 (full length) was below 3 nM; in test [1] (1.5 h) it was below 45 nM.
Regarding `COC(C)Cn1cnc2ccc(Sc3cnc(N4CCC5(CC4)CO[C@@H](C)[C@H]5N)cn3)c(Cl)c2c1=O` (stereo partly shown) [Example 120], the IC50 was below 3 nM at SHP2 (full length) and below 45 nM in test [1] (1.5 h).
On the same counts, the results for `C[C@@H]1OCC2(CCN(c3cnc(Sc4ccc5ncn(CC6CCC(=O)CC6)c(=O)c5c4Cl)cn3)CC2)[C@@H]1N` [Example 121] are below 3 nM and below 45 nM.
Regarding `C[C@@H]1OCC2(CCN(c3cnc(Sc4ccc5ncn(CC(O)CO)c(=O)c5c4Cl)cn3)CC2)[C@@H]1N` (stereo partly drawn) [Example 122, 6-((5-((3S,4S)-4-amino-3-methyl-2-oxa-8-azaspiro[4,5]decan-8-yl)pyrazin-2-yl)thio)-5-chloro-3-(2,3-dihydroxypropyl)quinazolin-4(3H)-one], the half-inhibitory concentration (IC50) on SHP2 (full length) is below 3 nM; in test [1], below 45 nM.
On to `C[C@@H]1OCC2(CCN(c3cnc(Sc4ccc5ncn(CCN(C)S(C)(=O)=O)c(=O)c5c4Cl)cn3)CC2)[C@@H]1N` [Example 123, N-(2-(6-((5-((3S,4S)-4-amino-3-methyl-2-oxa-8-azaspiro[4,5]decan-8-yl)pyrazin-2-yl)thio)-5-chloro-4-oxoquinazolin-3(4H)-yl]ethyl)-N-methylmethanesulfonamide], for which the IC50 at SHP2 (full length) was below 3 nM; in test [1] (1.5 h), below 45 nM.
For the compound `C[C@@H]1OCC2(CCN(c3cnc(Sc4ccc5c(c4Cl)S(=O)(=O)N(Cc4ccccc4)C=N5)cn3)CC2)[C@@H]1N` [Example 124, 7-((5-((3S,4S)-4-amino-3-methyl-2-oxa-8-azaspiro[4,5]decan-8-yl)pyrazin-2-yl)thio)-2-benzyl-8-chloro-2H-benzo[e][1,2,4]thiadiazine 1,1-dioxide], the IC50 on SHP2 (full length) was below 3 nM; in test [1] (1.5 h) it was below 45 nM.
On to `C[C@@H]1OCC2(CCN(c3cnc(Sc4ccc5nc(Oc6ccccc6)[nH]c5c4Cl)cn3)CC2)[C@@H]1N` [Example 125], for which the IC50 is below 3 nM on SHP2 (full length) and below 45 nM in test [1].
In the case of `C[C@@H]1OCC2(CCN(c3cnc(Sc4ccc5nc(OC6CCOC6)[nH]c5c4Cl)cn3)CC2)[C@@H]1N` (stereo partly drawn) [Example 126, (3S,4S)-8-(5-((7-chloro-2-((tetrahydrofuran-3-yl)oxy)-1H-benzo[d]imidazol-6-yl)thio)pyrazin-2-yl)-3-methyl-2-oxa-8-azaspiro[4,5]decan-4-amine], the values for the IC50 (on SHP2 (full length); in test [1] (1.5 h)) were 3 to 100 nM and 45 to 1500 nM, respectively.
Consider `COCCOc1nc2ccc(Sc3cnc(N4CCC5(CC4)CO[C@@H](C)[C@H]5N)cn3)c(Cl)c2[nH]1` [Example 127], for which the IC50 at SHP2 (full length) is below 3 nM; in test [1] (1.5 h), below 45 nM.
On the same counts, the results for `C[C@@H]1OCC2(CCN(c3cnc(Sc4ccc5nc(Oc6cccnc6)[nH]c5c4Cl)cn3)CC2)[C@@H]1N` [Example 128] are below 3 nM and below 45 nM.
On the same counts, the results for `C[C@@H]1OCC2(CCN(c3cnc(Sc4ccc5nc(OC6CCOC6)n(C)c5c4Cl)cn3)CC2)[C@@H]1N` (stereo partly drawn) [Example 129, (3S,4S)-8-(5-((7-chloro-1-methyl-2-((tetrahydrofuran-3-yl)oxy)-1H-benzo[d]imidazol-6-yl)thio)pyrazin-2-yl)-3-methyl-2-oxa-8-azaspiro[4.5]decan-4-amine] are below 3 nM and below 45 nM.
On the same counts, the results for `C[C@@H]1OCC2(CCN(c3cnc(Sc4ccc5c(nc(OC6CCOC6)n5C)c4Cl)cn3)CC2)[C@@H]1N` (stereo partly shown) [Example 130] are below 3 nM and below 45 nM.
With `COCCn1cnc2ccc(Sc3nc(CO)c(N4CCC5(CC4)CO[C@@H](C)[C@H]5N)nc3C)c(Cl)c2c1=O` [Example 131], the IC50 at SHP2 (full length) was in the range of 3 to 100 nM; in test [1], 45 to 1500 nM.
As to `C[C@@H]1OCC2(CCN(c3cnc(Sc4ccc5c(=O)n(Cc6ccccc6)cnc5c4Cl)cn3)CC2)[C@@H]1N` [Example 132], the IC50 on SHP2 (full length) is below 3 nM; in test [1] (1.5 h), below 45 nM.
On the same counts, the results for `C[C@@H]1OCC2(CCN(c3cnc(Sc4ccc5c(c4Cl)C(=O)N(Cc4ccccc4)C5)cn3)CC2)[C@@H]1N` [Example 133, 6-((5-((3S,4S)-4-amino-3-methyl-2-oxa-8-azaspiro[4,5]decan-8-yl)-pyrazin-2-yl)thio)-2-benzyl-7-chloroisoindolin-1-one] are 3 to 100 nM and 45 to 1500 nM.
On the same counts, the results for `COCCn1cnc2ccc(Sc3ncc(N4CCC5(CC4)Cc4ncccc4[C@H]5N)nc3N)c(Cl)c2c1=O` [Example 134] are 3 to 100 nM and 45 to 1500 nM.
On the same counts, the results for `COc1cccc(Cc2nc3ccc(Sc4cnc(N5CCC6(CC5)CO[C@@H](C)[C@H]6N)cn4)c(Cl)c3[nH]2)c1` [Example 135] are above 100 nM and above 1500 nM.
`C[C@@H]1OCC2(CCN(c3cnc(Sc4ccc5nc(Cc6cnccn6)[nH]c5c4Cl)cn3)CC2)[C@@H]1N` [Example 136, (3S,4S)-8-(5-((7-chloro-2-(pyrazin-2-ylmethyl)-1H-benzo[d]imidazol-6-yl)thio)pyrazin-2-yl)-3-methyl-2-oxa-8-azaspiro[4.5]decan-4-amine]: the IC50 at SHP2 (full length) is below 3 nM; in test [1] (1.5 h), below 45 nM.
On the same counts, the results for `C[C@@H]1OCC2(CCN(c3cnc(Sc4ccc5nc(Cc6cccnc6)[nH]c5c4Cl)cn3)CC2)[C@@H]1N` [Example 137, (3S,4S)-8-(5-((7-chloro-2-(pyridin-3-ylmethyl)-1H-benzo[d]imidazol-6-yl)thio)pyrazin-2-yl)-3-methyl-2-oxa-8-azaspiro[4.5]decan-4-amine] are 3 to 100 nM and 45 to 1500 nM.
On to `N[C@@H]1c2cccnc2CC12CCN(c1cnc(Sc3ccc4ncn(Cc5ccoc5)c(=O)c4c3Cl)cn1)CC2` [Example 138], for which the IC50 at SHP2 (full length) is below 3 nM; in test [1] (1.5 h), below 45 nM.
On the same counts, the results for `C[C@@H]1OCC2(CCN(c3cnc(Sc4ccc5ncn(CC(C)(C)F)c(=O)c5c4Cl)cn3)CC2)[C@@H]1N` [Example 139, 6-((5-((3S,4S)-4-amino-3-methyl-2-oxa-8-azaspiro[4.5]decan-8-yl)pyrazin-2-yl)thio)-5-chloro-3-(2-fluoro-2-methylpropyl)quinazolin-4(3H)-one] are 3 to 100 nM and 45 to 1500 nM.
As to `N[C@@H]1c2cccnc2CC12CCN(c1cnc(Sc3ccc4ncn(CC5(F)COC5)c(=O)c4c3Cl)cn1)CC2` [Example 140, (S)-6-((5-(5-amino-5,7-dihydrospiro[yclopenta[b]pyridine-6,4′-piperidin]-1′-yl)pyrazin-2-yl)thio)-5-chloro-3-((3-fluorooxetan-3-yl)methyl)quinazolin-4(3H)-one], the IC50 on SHP2 (full length) is below 3 nM; in test [1] (1.5 h), below 45 nM.
On to `N[C@@H]1c2cccnc2CC12CCN(c1cnc(Sc3ccc4ncn(Cc5ccncn5)c(=O)c4c3Cl)cn1)CC2` [Example 141, (S)-6-((5-(5-amino-5,7-dihydrospiro[yclopenta[b]pyridine-6,4′-piperidin]-1′-yl)pyrazin-2-yl)thio)-5-chloro-3-(pyrimidin-4-ylmethyl)quinazolin-4(3H)-one], for which the half-maximal inhibitory concentration (IC50) at SHP2 (full length) is below 3 nM; in test [1] (1.5 h) it was below 45 nM.
On the same counts, the results for `COC(C)Cn1cnc2ccc(Sc3cnc(N4CCC5(CC4)Cc4ncccc4[C@H]5N)cn3)c(Cl)c2c1=O` (stereo partly drawn) [Example 142, 6-((5-((S)-5-amino-5,7-dihydrospiro[yclopenta[b]pyridine-6,4′-piperidin]-1′-yl)pyrazin-2-yl)thio)-5-chloro-3-(2-methoxypropyl)quinazolin-4(3H)-one] are below 3 nM and below 45 nM.

For the origin of these results see US12029739B2, “SHP2 inhibitor and use thereof” (KANAPH THERAPEUTICS INC., priority 2021, dated 2024).
